In paper PMC2217457 (The Journal of General Physiology, 2004):

What was measured:
[1] = target: T1, mouse muscle-type AChR wild-type (Mus musculus, UniProt P02716+P04756+P20782); conditions: wt AChR
mouse AChR αR20L = conditions: 0.4 mM choline
mouse AChR αR55A = conditions: 20 mM choline
mouse AChR αR55W = conditions: 20 mM choline
[2] = target: T1, mouse muscle-type AChR wild-type; conditions: wt AChRs; ref Zhou et al., 1999; Grosman and Auerbach, 2000a; cited from earlier work
mouse AChR αV46A = experiment: Single-channel kinetics, αV46A AChR; format: cell-based
mouse AChR αV46E = experiment: Single-channel kinetics, αV46E AChR; format: cell-based
mouse AChR αP120G = experiment: Single-channel kinetics, αP120G AChR; format: cell-based; conditions: clusters at different concentrations of ACh
mouse AChR αS126V = experiment: Single-channel kinetics, αS126V AChR; format: cell-based; conditions: clusters at different concentrations of ACh
mouse AChR αS126A = experiment: Single-channel kinetics, αS126A AChR; format: cell-based; conditions: clusters at different concentrations of ACh

T1 sequence (P04756 21-457): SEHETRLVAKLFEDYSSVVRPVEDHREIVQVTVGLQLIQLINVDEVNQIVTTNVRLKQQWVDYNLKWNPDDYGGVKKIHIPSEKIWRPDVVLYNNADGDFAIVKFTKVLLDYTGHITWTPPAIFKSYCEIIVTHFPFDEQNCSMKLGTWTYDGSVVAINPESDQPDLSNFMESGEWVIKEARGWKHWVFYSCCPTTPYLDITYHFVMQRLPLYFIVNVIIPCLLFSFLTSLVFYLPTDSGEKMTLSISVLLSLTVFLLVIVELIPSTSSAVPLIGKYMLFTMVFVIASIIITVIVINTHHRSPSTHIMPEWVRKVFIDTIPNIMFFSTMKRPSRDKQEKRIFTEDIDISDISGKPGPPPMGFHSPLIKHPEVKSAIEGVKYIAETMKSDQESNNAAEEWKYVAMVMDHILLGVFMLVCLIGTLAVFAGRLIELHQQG
T1 sequence (P09690 24-501 partner): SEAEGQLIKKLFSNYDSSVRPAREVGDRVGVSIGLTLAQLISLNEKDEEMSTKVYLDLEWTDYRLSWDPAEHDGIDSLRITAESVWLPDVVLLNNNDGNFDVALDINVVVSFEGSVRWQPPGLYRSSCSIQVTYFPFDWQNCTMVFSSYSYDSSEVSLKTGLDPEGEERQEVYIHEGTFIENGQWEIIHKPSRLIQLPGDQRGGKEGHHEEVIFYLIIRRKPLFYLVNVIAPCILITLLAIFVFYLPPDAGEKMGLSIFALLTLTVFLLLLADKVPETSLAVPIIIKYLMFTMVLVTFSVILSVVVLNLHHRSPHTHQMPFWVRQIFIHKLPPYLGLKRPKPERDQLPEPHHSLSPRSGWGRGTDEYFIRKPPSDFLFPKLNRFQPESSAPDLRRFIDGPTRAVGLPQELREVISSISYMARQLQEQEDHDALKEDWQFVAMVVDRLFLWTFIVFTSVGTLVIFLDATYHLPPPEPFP
T1 sequence (P02716 25-520): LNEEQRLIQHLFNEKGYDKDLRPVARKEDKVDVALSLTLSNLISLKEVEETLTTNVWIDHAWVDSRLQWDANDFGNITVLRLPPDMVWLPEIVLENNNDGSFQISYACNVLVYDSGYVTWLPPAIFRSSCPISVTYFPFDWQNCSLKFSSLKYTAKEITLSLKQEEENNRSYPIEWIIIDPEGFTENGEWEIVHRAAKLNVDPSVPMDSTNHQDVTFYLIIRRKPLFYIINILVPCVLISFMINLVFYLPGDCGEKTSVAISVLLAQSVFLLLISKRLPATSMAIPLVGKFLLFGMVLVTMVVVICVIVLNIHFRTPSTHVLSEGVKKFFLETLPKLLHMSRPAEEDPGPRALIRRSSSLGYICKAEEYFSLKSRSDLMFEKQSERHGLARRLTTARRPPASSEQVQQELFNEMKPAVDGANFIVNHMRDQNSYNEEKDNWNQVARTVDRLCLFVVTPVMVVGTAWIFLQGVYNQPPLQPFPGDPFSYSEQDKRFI
T1 sequence (P20782 21-493): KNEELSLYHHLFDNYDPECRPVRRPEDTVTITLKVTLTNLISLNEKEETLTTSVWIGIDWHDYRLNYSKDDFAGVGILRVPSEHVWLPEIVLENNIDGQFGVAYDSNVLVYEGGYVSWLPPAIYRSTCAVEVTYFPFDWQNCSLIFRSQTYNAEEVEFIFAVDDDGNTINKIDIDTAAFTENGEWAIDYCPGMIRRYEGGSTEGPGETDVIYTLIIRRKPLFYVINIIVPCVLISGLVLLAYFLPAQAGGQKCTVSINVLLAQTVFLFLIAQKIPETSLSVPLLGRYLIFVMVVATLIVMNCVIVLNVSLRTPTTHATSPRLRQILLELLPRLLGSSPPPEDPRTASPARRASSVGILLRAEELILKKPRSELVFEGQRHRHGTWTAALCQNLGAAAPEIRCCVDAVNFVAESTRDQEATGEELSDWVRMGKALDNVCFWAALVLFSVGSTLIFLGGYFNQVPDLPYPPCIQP

## C[N+](C)(C)CCO [Choline, choline]
[1]; 0.4 mM choline
  α2 Choline (diliganded channel-closing rate constant): 2,100 s^−1
[1]; 20 mM choline
  β2 Choline (diliganded channel-opening rate constant): 100 s⁻¹
Mouse AChR αV46I; 0.4 mM choline
  α2 Choline (diliganded channel-closing rate constant): 1,982 s^−1
Mouse AChR αV46I; 20 mM choline
  β2 Choline (diliganded channel-opening rate constant): 249 s⁻¹
Mouse AChR αN47A; 0.4 mM choline
  α2 Choline (diliganded channel-closing rate constant): 1,450 s^−1
Mouse AChR αN47A; 20 mM choline
  β2 Choline (diliganded channel-opening rate constant): 933 s⁻¹
Mouse AChR αN47K; 0.4 mM choline
  α2 Choline (diliganded channel-closing rate constant): 2,371 s^−1
Mouse AChR αN47K; 20 mM choline
  β2 Choline (diliganded channel-opening rate constant): 607 s⁻¹
Mouse AChR αQ48A; 0.4 mM choline
  α2 Choline (diliganded channel-closing rate constant): 10,271 s^−1
Mouse AChR αQ48A; 20 mM choline
  β2 Choline (diliganded channel-opening rate constant): 2,836 s^−1
Mouse AChR αF137M; 0.4 mM choline
  α2 Choline (diliganded channel-closing rate constant): 1,017 s^−1
Mouse AChR αF137M; 20 mM choline
  β2 Choline (diliganded channel-opening rate constant): 225 s⁻¹
Mouse AChR αD138E; 0.4 mM choline
  α2 Choline (diliganded channel-closing rate constant): 1,456 s^−1
Mouse AChR αD138E; 20 mM choline
  β2 Choline (diliganded channel-opening rate constant): 239 s⁻¹
Mouse AChR αN141V; 0.4 mM choline
  α2 Choline (diliganded channel-closing rate constant): 1,389 s^−1
Mouse AChR αN141V; 20 mM choline
  β2 Choline (diliganded channel-opening rate constant): 260 s⁻¹
Mouse AChR αR20L
  α2 Choline (diliganded channel-closing rate constant): 2,119
Mouse AChR αV29L; 0.4 mM choline
  α2 Choline (diliganded channel-closing rate constant): 2,644
Mouse AChR αV29L; 20 mM choline
  β2 Choline (diliganded channel-opening rate constant): 200
Mouse AChR αL35A; 0.4 mM choline
  α2 Choline (diliganded channel-closing rate constant): 2,423
Mouse AChR αL35A; 20 mM choline
  β2 Choline (diliganded channel-opening rate constant): 182
Mouse AChR αL40A; 0.4 mM choline
  α2 Choline (diliganded channel-closing rate constant): 1,629
Mouse AChR αL40A; 20 mM choline
  β2 Choline (diliganded channel-opening rate constant): 312
Mouse AChR αV54L; 0.4 mM choline
  α2 Choline (diliganded channel-closing rate constant): 1,340
Mouse AChR αV54L; 20 mM choline
  β2 Choline (diliganded channel-opening rate constant): 124
Mouse AChR αR55A
  β2 Choline (diliganded channel-opening rate constant): 164
Mouse AChR αR55W
  β2 Choline (diliganded channel-opening rate constant): 98.2
Mouse AChR αL56A; 0.4 mM choline
  α2 Choline (diliganded channel-closing rate constant): 2,707
Mouse AChR αL56A; 20 mM choline
  β2 Choline (diliganded channel-opening rate constant): 217
Mouse AChR αL65V; 0.4 mM choline
  α2 Choline (diliganded channel-closing rate constant): 2,166
Mouse AChR αL65V; 20 mM choline
  β2 Choline (diliganded channel-opening rate constant): 124
Mouse AChR αL110V; 0.4 mM choline
  α2 Choline (diliganded channel-closing rate constant): 1,874
Mouse AChR αL110V; 20 mM choline
  β2 Choline (diliganded channel-opening rate constant): 70
Mouse AChR αI116A; 0.4 mM choline
  α2 Choline (diliganded channel-closing rate constant): 2,238
Mouse AChR αI116A; 20 mM choline
  β2 Choline (diliganded channel-opening rate constant): 110
Mouse AChR αA122L; 0.4 mM choline
  α2 Choline (diliganded channel-closing rate constant): 2,142
Mouse AChR αA122L; 20 mM choline
  β2 Choline (diliganded channel-opening rate constant): 358
Mouse AChR αS143T; 0.4 mM choline
  α2 Choline (diliganded channel-closing rate constant): 2,200
Mouse AChR αS143T; 20 mM choline
  β2 Choline (diliganded channel-opening rate constant): 118
Mouse AChR αS143A; 0.4 mM choline
  α2 Choline (diliganded channel-closing rate constant): 3,054
Mouse AChR αS143A; 20 mM choline
  β2 Choline (diliganded channel-opening rate constant): 79
Mouse AChR αM144L; 0.4 mM choline
  α2 Choline (diliganded channel-closing rate constant): 2,911
Mouse AChR αM144L; 20 mM choline
  β2 Choline (diliganded channel-opening rate constant): 917
Mouse AChR αM144T; 0.4 mM choline
  α2 Choline (diliganded channel-closing rate constant): 1,180
Mouse AChR αM144T; 20 mM choline
  β2 Choline (diliganded channel-opening rate constant): 54
Mouse AChR αM144I; 0.4 mM choline
  α2 Choline (diliganded channel-closing rate constant): 2,823
Mouse AChR αM144I; 20 mM choline
  β2 Choline (diliganded channel-opening rate constant): 93
Mouse AChR αM144A; 0.4 mM choline
  α2 Choline (diliganded channel-closing rate constant): 2,514
Mouse AChR αM144A; 20 mM choline
  β2 Choline (diliganded channel-opening rate constant): 64
Mouse AChR αL146M; 0.4 mM choline
  α2 Choline (diliganded channel-closing rate constant): 2,435
Mouse AChR αL146M; 20 mM choline
  β2 Choline (diliganded channel-opening rate constant): 118
Mouse AChR αL146F; 0.4 mM choline
  α2 Choline (diliganded channel-closing rate constant): 2,234
Mouse AChR αL146F; 20 mM choline
  β2 Choline (diliganded channel-opening rate constant): 97
[2]
  diliganded gating equilibrium constant, times smaller than ACh: 500 times

## CC(=O)OCC[N+](C)(C)C [ACh, acetylcholine]
Mouse AChR αV46A; low ACh
  α2 ACh (diliganded channel-closing rate constant): 4,135 s^−1
Mouse AChR αV46A; saturating ACh
  β2 ACh (diliganded channel-opening rate constant): 1,340 s^−1
Mouse AChR αV46E; low ACh
  α2 ACh (diliganded channel-closing rate constant): 6,613 s^−1
Mouse AChR αV46E; saturating ACh
  β2 ACh (diliganded channel-opening rate constant): 795 s⁻¹
Mouse AChR αP120G
  α2 ACh (diliganded channel-closing rate constant): 2,006
  β2 ACh (diliganded channel-opening rate constant): 49,531
Mouse AChR αS126V
  α2 ACh (diliganded channel-closing rate constant): 1,770
  β2 ACh (diliganded channel-opening rate constant): 40,253
Mouse AChR αS126A
  α2 ACh (diliganded channel-closing rate constant): 2,598
  β2 ACh (diliganded channel-opening rate constant): 48,918
